Test results as given in patent publication US11718618B2, “Substituted pyrido[2,1-a]isoquinolines as VMAT2 inhibitors” (priority 2021, dated 2023).

biological target: human VMAT2 (Homo sapiens (Human), UniProt Q05940); assay: VMAT2 radioligand binding, 3H-dihydrotetrabenazine competition on human platelet homogenate; conditions: 10 nM 3H-dihydrotetrabenazine, human platelet homogenate, 25° C., 90 minutes; read-out: VMAT2 Ki
Procedure: Examples of techniques for determining the capability of a compound to inhibit VMAT2 are provided below. The procedure was adapted from that described previously (see, e.g., Near, (1986), Mol. Pharmacol. 30: 252-57; Teng, et al., J. Neurochem. 71, 258-65, 1998). Homogenates from human platelets were prepared by homogenization and then washed by centrifugation as described previously (see, e.g., Hoare et al., (2003) Peptides 24:1881-97).
The human VMAT2 Ki values for the compounds listed in Table 15A and Table 15B were determined using the following procedures. Compound dilution series in DMSO were generated from either powder stocks by hand, or from DMSO stocks using serial dilution on a Vantage (Hamilton), or direct dilution using an Echo 655 (Beckman). In a total volume of 0.145 to 0.150 mL in low-binding 96-well plates (Corning #3605), twelve concentrations of test compound were competed against 10 nM ^3H-dihydrotetrabenezine (American Radiolabeled Chemicals) on human platelet homogenate (30 μg membrane protein per well) in VMAT2 binding buffer (Dulbecco's phosphate buffered saline, 1 mM EDTA, pH 7.4). Following incubation at 25° C. for 90 minutes, bound radioligand was collected by rapid filtration onto either GF/B or GF/C glass fiber filters, pretreated with 0.100 polyethylenimine, using either a Unifilter-96 Harvester (PerkinElmer) or Microlab Star (Hamilton). Following harvesting the filter plates were washed with 0.8 mL VMAT2 binding buffer, and bound radioligand was quantified by scintillation counting using a Topcount NXT or Microplate Counter Microbeta (PerkinElmer).

Chain of human VMAT2 (Q05940 whole entry): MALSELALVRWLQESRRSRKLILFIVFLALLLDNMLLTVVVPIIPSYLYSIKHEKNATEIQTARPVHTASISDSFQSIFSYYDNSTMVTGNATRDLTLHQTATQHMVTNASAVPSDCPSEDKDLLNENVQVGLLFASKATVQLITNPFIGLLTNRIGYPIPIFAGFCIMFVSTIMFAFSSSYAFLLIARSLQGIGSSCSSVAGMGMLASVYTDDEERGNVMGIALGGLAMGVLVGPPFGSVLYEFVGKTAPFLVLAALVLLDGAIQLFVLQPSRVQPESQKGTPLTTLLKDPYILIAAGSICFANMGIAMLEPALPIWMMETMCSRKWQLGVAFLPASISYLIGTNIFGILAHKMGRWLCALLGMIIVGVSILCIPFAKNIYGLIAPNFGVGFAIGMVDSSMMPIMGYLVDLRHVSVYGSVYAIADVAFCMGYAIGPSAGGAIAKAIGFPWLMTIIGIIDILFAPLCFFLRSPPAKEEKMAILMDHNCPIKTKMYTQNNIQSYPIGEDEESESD

Compared with COc1cc2c(cc1OCC(F)F)CCN1C[C@H](CC(C)(C)C)[C@H](O)C[C@@H]21 [Compound 4-2, (2R,3S,11bS)-9-(2,2-difluoroethoxy)-3-(2,2-dimethylpropyl)-10-methoxy-1H,2H,3H,4H,6H,7H,11bH-pyrido[2,1-a]isoquinolin-2-ol], COc1cc2c(cc1OCC(F)F)CCN1C[C@H](CC(C)(C)C)[C@@H](O)C[C@@H]21 [Compound 4-6, (2S,3S,11bS)-9-(2,2-difluoroethoxy)-3-(2,2-dimethylpropyl)-10-methoxy-1H,2H,3H,4H,6H,7H,11bH-pyrido[2,1-a]isoquinolin-2-ol] is 1.8-fold higher in Ki: 467 nM for the first, 860 nM for the second. The first binds more tightly here.

First: COc1cc2c(cc1OCC(C)(F)F)CCN1C[C@H](CC(C)(C)C)[C@H](O)C[C@@H]21 [Compound 4-3, (2R,3S,11bS)-9-(2,2-difluoropropoxy)-3-(2,2-dimethylpropyl)-10-methoxy-1H,2H,3H,4H,6H,7H,11bH-pyrido[2,1-a]isoquinolin-2-ol]
Second: COc1cc2c(cc1OCC(C)(F)F)CCN1C[C@H](CC(C)(C)C)[C@@H](O)C[C@@H]21 [Compound 4-7, (2S,3S,11bS)-9-(2,2-difluoropropoxy)-3-(2,2-dimethylpropyl)-10-methoxy-1H,2H,3H,4H,6H,7H,11bH-pyrido[2,1-a]isoquinolin-2-ol]
The Ki of the first is 3.5-fold lower: 152 nM for the first, 539 nM for the second. The first binds more tightly here.

First: COc1cc2c(cc1OCC(F)(F)F)CCN1C[C@H](CC(C)(C)C)[C@H](O)C[C@@H]21 [Compound 4-4, (2R,3S,11bS)-3-(2,2-dimethylpropyl)-10-methoxy-9-(2,2,2-trifluoroethoxy)-1H,2H,3H,4H,6H,7H,11bH-pyrido[2,1-a]isoquinolin-2-ol]
Second: COc1cc2c(cc1OCC(F)(F)F)CCN1C[C@H](CC(C)(C)C)[C@@H](O)C[C@@H]21 [Compound 4-8, (2S,3S,11bS)-3-(2,2-dimethylpropyl)-10-methoxy-9-(2,2,2-trifluoroethoxy)-1H,2H,3H,4H,6H,7H,11bH-pyrido[2,1-a]isoquinolin-2-ol]
The Ki of the first is 3.5-fold lower: 170 nM for the first, 597 nM for the second. The first binds more tightly here.

First: COc1cc2c(cc1OCCC(F)(F)F)CCN1C[C@H](CC(C)(C)C)[C@H](O)C[C@@H]21 [Compound 4-5, (2R,3S,11bS)-3-(2,2-dimethylpropyl)-10-methoxy-9-(3,3,3-trifluoropropoxy)-1H,2H,3H,4H,6H,7H,11bH-pyrido[2,1-a]isoquinolin-2-ol]
Second: COc1cc2c(cc1OCC(=O)N(C)CC(F)(F)F)CCN1C[C@@H](CC(C)(C)C)[C@H](O)C[C@H]21 [Compound 4-84, 2-{[(2R,3R,11bR)-3-(2,2-dimethylpropyl)-2-hydroxy-10-methoxy-1H,2H,3H,4H,6H,7H,11bH-pyrido[2,1-a]isoquinolin-9-yl]oxy}-N-methyl-N-(2,2,2-trifluoroethyl)acetamide]
The Ki of the first is 2-fold lower: 135 nM for the first, 272 nM for the second. The first binds more tightly here.

Going from COc1cc2c(cc1OCCOC1COC1)CCN1C[C@@H](CC(C)(C)C)[C@H](O)C[C@H]21 [Compound 4-20, (2R,3R,11bR)-3-(2,2-dimethylpropyl)-10-methoxy-9-[2-(oxetan-3-yloxy)ethoxy]-1H,2H,3H,4H,6H,7H,11bH-pyrido[2,1-a]isoquinolin-2-ol] to COc1cc2c(cc1OCCCO)CCN1C[C@@H](CC(C)(C)C)[C@H](O)C[C@H]21 [Compound 4-89, (2R,3R,11bR)-3-(2,2-dimethylpropyl)-9-(3-hydroxypropoxy)-10-methoxy-1H,2H,3H,4H,6H,7H,11bH-pyrido[2,1-a]isoquinolin-2-ol], the Ki falls from 336 nM to 140 nM (2.4-fold). The second binds more tightly here.

Compared with COc1cc2c(cc1OC[C@@H]1CCO1)CCN1C[C@@H](CC(C)(C)C)[C@H](O)C[C@H]21 [Compound 4-21, (2R,3R,11bR)-3-(2,2-dimethylpropyl)-10-methoxy-9-[(2S)-oxetan-2-ylmethoxy]-1H,2H,3H,4H,6H,7H,11bH-pyrido[2,1-a]isoquinolin-2-ol], COc1cc2c(cc1OCC1CN(C)C1)CCN1C[C@@H](CC(C)(C)C)[C@H](O)C[C@H]21 [Compound 4-37, (2R,3R,11bR)-3-(2,2-dimethylpropyl)-10-methoxy-9-[(1-methylazetidin-3-yl)methoxy]-1H,2H,3H,4H,6H,7H,11bH-pyrido[2,1-a]isoquinolin-2-ol] is higher in Ki: 28 nM for the first, over 10000 nM for the second.

COc1cc2c(cc1OCC(=O)N(C)C)CCN1C[C@@H](CC(C)(C)C)[C@H](O)C[C@H]21 [Compound 4-33, 2-{[(2R,3R,11bR)-3-(2,2-dimethylpropyl)-2-hydroxy-10-methoxy-1H,2H,3H,4H,6H,7H,11bH-pyrido[2,1-a]isoquinolin-9-yl]oxy}-N,N-dimethylacetamide] and CNC(=O)COc1cc2c(cc1OC)[C@H]1C[C@@H](O)[C@H](CC(C)(C)C)CN1CC2 [Compound 4-35, 2-{[(2R,3R,11bR)-3-(2,2-dimethylpropyl)-2-hydroxy-10-methoxy-1H,2H,3H,4H,6H,7H,11bH-pyrido[2,1-a]isoquinolin-9-yl]oxy}-N-methylacetamide] cannot be ordered by Ki: over 10000 nM for the first, over 10000 nM for the second.

Going from COc1cc2c(cc1OCCn1ccnc1)CCN1C[C@@H](CC(C)(C)C)[C@H](O)C[C@H]21 [Compound 4-34, (2R,3R,11bR)-3-(2,2-dimethylpropyl)-9-[2-(1H-imidazol-1-yl)ethoxy]-10-methoxy-1H,2H,3H,4H,6H,7H,11bH-pyrido[2,1-a]isoquinolin-2-ol] to COc1cc2c(cc1OCCCS(C)(=O)=O)CCN1C[C@@H](CC(C)(C)C)[C@H](O)C[C@H]21 [Compound 4-85, (2R,3R,11bR)-3-(2,2-dimethylpropyl)-9-(3-methanesulfonylpropoxy)-10-methoxy-1H,2H,3H,4H,6H,7H,11bH-pyrido[2,1-a]isoquinolin-2-ol], the Ki falls from over 10000 nM to 276 nM. The second binds more tightly here.

First: COc1cc2c(cc1OC(C)C(F)(F)F)CCN1C[C@@H](CC(C)(C)C)[C@H](O)C[C@H]21 (stereo partly drawn) [Compound 4-39, (2R,3R,11bR)-3-(2,2-dimethylpropyl)-10-methoxy-9-[(1,1,1-trifluoropropan-2-yl)oxy]-1H,2H,3H,4H,6H,7H,11bH-pyrido[2,1-a]isoquinolin-2-ol]
Second: COc1cc2c(cc1OC1CCN(CC(F)(F)F)C1=O)CCN1C[C@@H](CC(C)(C)C)[C@H](O)C[C@H]21 (stereo partly drawn) [Compound 4-87, 3-{[(2R,3R,11bR)-3-(2,2-dimethylpropyl)-2-hydroxy-10-methoxy-1H,2H,3H,4H,6H,7H,11bH-pyrido[2,1-a]isoquinolin-9-yl]oxy}-1-(2,2,2-trifluoroethyl)pyrrolidin-2-one]
The Ki of the first is 54-fold lower: 12 nM for the first, 650 nM for the second.

Going from COC[C@H](O)COc1cc2c(cc1OC)[C@H]1C[C@@H](O)[C@H](CC(C)(C)C)CN1CC2 [Compound 4-48, (2R,3R,11bR)-3-(2,2-dimethylpropyl)-9-[(2S)-2-hydroxy-3-methoxypropoxy]-10-methoxy-1H,2H,3H,4H,6H,7H,11bH-pyrido[2,1-a]isoquinolin-2-ol] to COc1cc2c(cc1OC[C@H](O)CO)CCN1C[C@@H](CC(C)(C)C)[C@H](O)C[C@H]21 [Compound 4-83, (2R)-3-{[(2R,3R,11bR)-3-(2,2-dimethylpropyl)-2-hydroxy-10-methoxy-1H,2H,3H,4H,6H,7H,11bH-pyrido[2,1-a]isoquinolin-9-yl]oxy}propane-1,2-diol], the Ki falls from 313 nM to 207 nM (1.5-fold).

COc1cc2c(cc1OCC1(C(F)(F)F)CCCC1)CCN1C[C@@H](CC(C)(C)C)[C@H](O)C[C@H]21 [Compound 4-80, (2R,3R,11bR)-3-(2,2-dimethylpropyl)-10-methoxy-9-{[1-(trifluoromethyl)cyclo-pentyl]methoxy}-1H,2H,3H,4H,6H,7H,11bH-pyrido[2,1-a]isoquinolin-2-ol] and COc1cc2c(cc1OCc1ccc(C(F)(F)F)cc1)CCN1C[C@@H](CC(C)(C)C)[C@H](O)C[C@H]21 [Compound 4-81, (2R,3R,11bR)-3-(2,2-dimethylpropyl)-10-methoxy-9-{[4-(trifluoro-methyl)phenyl]methoxy}-1H,2H,3H,4H,6H,7H,11bH-pyrido[2,1-a]isoquinolin-2-ol] are within 1.5-fold of each other in Ki: 133 nM for the first, 177 nM for the second.

COc1cc2c(cc1OCc1ccc(C#N)cn1)CCN1C[C@@H](CC(C)(C)C)[C@H](O)C[C@H]21 [Compound 4-82, 6-({[(2R,3R,11bR)-3-(2,2-dimethylpropyl)-2-hydroxy-10-methoxy-1H,2H,3H,4H,6H,7H,11bH-pyrido[2,1-a]isoquinolin-9-yl]oxy}methyl)pyridine-3-carbonitrile] and COc1cc2c(cc1OCS(=O)(=O)N(C)C)CCN1C[C@@H](CC(C)(C)C)[C@H](O)C[C@H]21 [Compound 4-86, 1-{[(2R,3R,11bR)-3-(2,2-dimethylpropyl)-2-hydroxy-10-methoxy-1H,2H,3H,4H,6H,7H,11bH-pyrido[2,1-a]isoquinolin-9-yl]oxy}-N,N-dimethylmethanesulfonamide] are within 1.5-fold of each other in Ki: 198 nM for the first, 287 nM for the second.

For CCC(O)(CC)COc1cc2c(cc1OC)[C@H]1C[C@@H](O)[C@H](CC(C)(C)C)CN1CC2 [Compound 4-93, (2R,3R,11bR)-3-(2,2-dimethylpropyl)-9-(2-ethyl-2-hydroxybutoxy)-10-methoxy-1H,2H,3H,4H,6H,7H,11bH-pyrido[2,1-a]isoquinolin-2-ol], the Ki was 281 nM.
